According to publication PMC11892714 (OTA International, 2025):

Assay: Vancomycin pharmacokinetics, serum concentration after IO vs IV delivery
Assay type: in vivo, New Zealand White rabbits
Settings: rabbit, samples T0-T6, LC-MS/MS (Fig. 7A)

CN[C@H](CC(C)C)C(=O)N[C@H]1C(=O)N[C@@H](CC(N)=O)C(=O)N[C@H]2C(=O)N[C@H]3C(=O)N[C@H](C(=O)N[C@H](C(=O)O)c4cc(O)cc(O)c4-c4cc3ccc4O)[C@H](O)c3ccc(c(Cl)c3)Oc3cc2cc(c3O[C@@H]2O[C@H](CO)[C@@H](O)[C@H](O)[C@H]2O[C@H]2C[C@](C)(N)[C@H](O)[C@H](C)O2)Oc2ccc(cc2Cl)[C@H]1O [vancomycin]
Serum vancomycin profile across time, IO delivery (30 mg/kg IO over 30 min): slight peak but remained at relatively consistent serum levels across time points
Serum vancomycin profile across time, IV delivery (30 mg/kg IV over 30 min): high systemic peak soon after bolus delivery with a steady decline across time
